In patent publication US20250230147A1, “LACTAMS AS CBL-B INHIBITORS” (Genentech, Inc., priority 2021, published 2025):

What was measured:
[1] = Liver microsomes metabolic stability, dog; type: in vitro ADME; conditions: 1 μM compound, 0.5 mg/mL microsomal protein
Experimental: (§1) Metabolic stability of test compounds was evaluated in pooled rat, mouse, dog, and cynomolgus monkey liver microsomes (BD Biosciences, San Jose, CA). The incubation conditions were as follows: 1 μM of the tested compound, 1 mM NADPH, 0.5 mg/mL microsomal protein in 0.1 M potassium phosphate buffer (pH 7.4). Following a 5-minute pre-incubation period, the enzymatic reactions were initiated by the addition of NADPH and test compound to the microsomes diluted in phosphate buffered saline. The mixtures were incubated at 37° C. for 0, 20, 40, and 60 min.
(§2) Compound concentrations were assessed by LC-MS/MS. Intrinsic clearance based upon microsomal stability data was determined using a substrate depletion method and scaled to hepatic clearance using the well-stirred model (Obach, R. S.; Baxter, J. G.; Liston, T. E.; Silber, B. M.; Jones, B. C.; Macintyre, F.; Rance, D. J.; Wastall, P., “The Prediction of Human Pharmacokinetic Parameters from Preclinical and in vitro Metabolism Data”, J. Pharmacol. Exp. Ther., (1997), 283 (1), 46-58).

[2] = test system: rat hepatocytes; experiment: Hepatocyte metabolic stability, rat; type: in vitro ADME; conditions: 1.0 μM compound, 0.5 million cells/mL
Experimental: (§3) Metabolic stability assays of test compounds were evaluated in cryopreserved pooled rat, mouse, dog, and cynomolgus monkey hepatocytes (CellzDirect; Durham, NC, USA). Membrane integrity of the cells was assessed by trypan blue exclusion. Test compounds (1.0 μM with 0.1% dimethylsulfoxide) were incubated with cells (0.5 million cells/mL) at 37° C. in a 95% air/5% CO2 atmosphere for 0, 20, 40, or 60 minutes. Concentrations of test compounds in hepatocyte incubations were determined by LC/MS/MS. Intrinsic clearance was determined using a substrate depletion method and scaled to hepatic clearance using the well-stirred model as described above for the liver microsomes metabolic stability assays.

[3] = Liver microsomes metabolic stability, mouse; type: in vitro ADME; conditions: 1 μM compound, 0.5 mg/mL microsomal protein
Experimental: as §1, §2

[4] = test system: mouse hepatocytes; experiment: Hepatocyte metabolic stability, mouse; type: in vitro ADME; conditions: 1.0 μM compound, 0.5 million cells/mL
Experimental: as §3

[5] = Liver microsomes metabolic stability, rat; type: in vitro ADME; conditions: 1 μM compound, 0.5 mg/mL microsomal protein
Experimental: as §1, §2

[6] = target: Cbl-b (Homo sapiens (Human), UniProt Q13191); experiment: Cbl-b LCK Ub TR-FRET assay (Cbl-b Lck HTRF); type: biochemical
Outline: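 TR-FRET (340 nm excitation, 615/665 nm emission) read after adding HA-ubiquitin–UBE2D2 thioester, anti-HA-D2 and streptavidin-Eu. Beforehand, compounds incubated 60 min with biotinylated Cbl-b, then 90 min with His-LCK and ATP (1 mM in 2× mix); IC50 from 10 concentrations, DMSO high and no-LCK low controls.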

[7] = target: c-Cbl (Homo sapiens (Human), UniProt P22681); experiment: C-Cbl LCK Ub TR-FRET assay (c-cbl Lck HTRF); type: biochemical; conditions: for (fold-selectivity): C-cbl Lck HTRF IC50 relative to Cbl-b Lck HTRF IC50
Outline: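 After the ubiquitination reaction, detection mixture was added and plates incubated 20 min at room temperature before reading. IC50 values were calculated with wells lacking LCK as the low control and DMSO as the high control.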

[8] = In vivo pharmacokinetics, mouse; set-up: species or system CD-1 mice; conditions: male, CD-1, plasma; for bioavailability: PO 1-5 mg/kg, read-out: Oral Bioavailability (F %); for clearance: single intravenous bolus 0.2-1 mg/kg, read-out: Mouse CL
Experimental: The pharmacokinetics of test compounds were evaluated following a single intravenous bolus (IV) of solution at a dose of 0.2-1 mg/kg and oral administration (PO) of solution/suspension at doses of 1-5 mg/kg in male cynomolgus monkey, beagle dogs, Sprague Dawley rats, or CD-1 mice using a parallel study design. Blood samples for the IV dose group were collected prior to administration (predose) and at 0.033, 0.083, 0.25, 0.5, 1, 3, 6, 9 and 24 hours post dose. Blood samples for PO dose groups were collected prior to administration (predose) and at 0.083, 0.25, 0.5, 1, 3, 6, 9 and 24 hours post dose. For the IV group, urine was collected from each animal at predose and from 0-6 and 6-24 hours post dose. The vehicle used for IV dose groups was a combination of PEG400 with citrate buffer (pH 5.0) or PEG400/Cremphor with DMSO/H2O, and for PO groups was MCT.
Plasma and urine concentrations were quantitated at Genentech Inc. using a non-validated LC/MS/MS method. The lower limit of quantitation (LLOQ) of the plasma and urine assays was 0.005 μM. PK parameters were determined by non-compartmental methods using WinNonlin (version 5.2, Pharsight Corporation, Mountain View, CA).

c-Cbl, sequence (P22681 47-435): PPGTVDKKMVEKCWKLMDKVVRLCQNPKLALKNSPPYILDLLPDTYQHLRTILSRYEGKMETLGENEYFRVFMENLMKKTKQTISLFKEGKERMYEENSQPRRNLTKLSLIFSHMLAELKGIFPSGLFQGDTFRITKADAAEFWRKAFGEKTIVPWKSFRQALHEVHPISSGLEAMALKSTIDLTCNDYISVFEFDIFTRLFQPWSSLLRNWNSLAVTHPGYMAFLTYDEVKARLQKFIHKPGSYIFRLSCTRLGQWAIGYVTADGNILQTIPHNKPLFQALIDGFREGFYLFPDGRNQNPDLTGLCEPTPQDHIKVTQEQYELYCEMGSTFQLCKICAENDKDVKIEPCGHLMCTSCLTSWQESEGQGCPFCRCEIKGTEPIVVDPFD
Cbl-b, sequence (Q13191 40-426): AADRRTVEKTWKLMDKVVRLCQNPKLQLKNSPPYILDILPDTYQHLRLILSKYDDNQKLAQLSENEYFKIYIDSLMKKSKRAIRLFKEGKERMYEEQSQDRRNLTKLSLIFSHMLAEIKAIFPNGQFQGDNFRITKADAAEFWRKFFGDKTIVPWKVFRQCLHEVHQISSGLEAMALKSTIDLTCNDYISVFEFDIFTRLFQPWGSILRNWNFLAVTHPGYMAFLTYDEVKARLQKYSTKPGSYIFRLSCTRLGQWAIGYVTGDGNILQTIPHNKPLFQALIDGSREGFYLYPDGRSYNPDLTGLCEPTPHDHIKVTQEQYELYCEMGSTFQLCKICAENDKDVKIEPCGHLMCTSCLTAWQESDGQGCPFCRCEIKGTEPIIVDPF

Row | Liver microsomes Pred. CLhep (mL/min/kg) Rat/Mouse/Dog [1] [mL/min/kg] | Hepatocyte Pred. CLhep (mL/min/kg) Rat/Mouse/Dog [2] [mL/min/kg] | Liver microsomes Pred. CLhep (mL/min/kg) Rat/Mouse/Dog [3] [mL/min/kg] | Hepatocyte Pred. CLhep (mL/min/kg) Rat/Mouse/Dog [4] [mL/min/kg] | Liver microsomes Pred. CLhep (mL/min/kg) Rat/Mouse/Dog [5] [mL/min/kg] | IC50 [6] [nM] | IC50 [7] [nM] | (fold-selectivity) [7] | bioavailability [8] [%] | clearance [8] [mL/min/kg] | SMILES
1 | 12 | 19 | 14 | 37 | 6 | 79 | 110 | 1.3x |  |  | Cn1cnnc1[C@H](F)C1(c2cccc(N3Cc4c(cc(CN)cc4C(F)(F)F)C3=O)c2)COC1 [Compound 68, (R)-6-(aminomethyl)-2-(3-(3-(fluoro(4-methyl-4H-1,2,4-triazol-3-yl)methyl)oxetan-3-yl)phenyl)-4-(trifluoromethyl)isoindolin-1-one]
2 |  |  |  |  |  | 110 | 210 | 1.9x | 2 | 44 | Cn1cnnc1[C@H](F)C1(c2cccc(N3Cc4c(cc(CN5CCC5)cc4C(F)(F)F)C3=O)c2)COC1 [Compound 70, (R)-6-(azetidin-1-ylmethyl)-2-(3-(3-(fluoro(4-methyl-4H-1,2,4-triazol-3-yl)methyl)oxetan-3-yl)phenyl)-4-(trifluoromethyl)isoindolin-1-one]
3 | 19 | 11 | 37 | 35 | 15 | 57 | 120 | 2.2x |  |  | Cn1cnnc1[C@H](F)C1(c2cccc(N3Cc4c(cc(CN5CC(C)(CO)C5)cc4C(F)(F)F)C3=O)c2)COC1 [Compound 74, (R)-2-(3-(3-(fluoro(4-methyl-4H-1,2,4-triazol-3-yl)methyl)oxetan-3-yl)phenyl)-6((3-(hydroxymethyl)-3-methylazetidin-1-yl)methyl)-4-(trifluoromethyl)isoindolin-1-one]
4 | 14 | 12 | 27 | 36 | 7 | 130 | 270 | 2.1x | 2 | 40 | Cn1cnnc1[C@H](F)C1(c2cccc(N3Cc4c(cc(CN5CC6CC5C6)cc4C(F)(F)F)C3=O)c2)COC1 [Compound 86, (R)-6-((2-azabicyclo[2.1.1]hexan-2-yl)methyl)-2-(3-(3-(fluoro(4-methyl-4H-1,2,4-triazol-3-yl)methyl)oxetan-3-yl)phenyl)-4-(trifluoromethyl)isoindolin-1-one]
5 |  |  |  |  |  | 11 | 13 | 1.1x | 13 | 42 | CC(C)[C@H]1CN(C)CCN1Cc1cc2c(c(C(F)(F)F)c1)CN(c1cccc(C3([C@@H](F)c4nncn4C)COC3)c1)C2=O [Compound 187, 2-(3-(3-((R)-fluoro(4-methyl-4H-1,2,4-triazol-3-yl)methyl)oxetan-3-yl)phenyl)-6-(((S)-2-isopropyl-4-methylpiperazin-1-yl)methyl)-4-(trifluoromethyl)isoindolin-1-one]
6 |  |  |  |  |  | 12 | 11 | 0.95x | 21 | 34 | CC(C)[C@H]1CN(C)CCN1Cc1cc2c(c(C(F)(F)F)c1)CN(c1cccc(C3([C@@H](F)c4nncn4C)CC(F)(F)C3)c1)C2=O [Compound 189, 2-(3-(3,3-difluoro-1-((R)-fluoro(4-methyl-4H-1,2,4-triazol-3-yl)methyl)cyclobutyl)phenyl)-6-(((S)-2-isopropyl-4-methylpiperazin-1-yl)methyl)-4-(trifluoromethyl)isoindolin-1-one]
7 |  |  |  |  |  | 630 | 4500 | (6.9x) |  |  | Cn1cnnc1CC1(c2cc(NC34CCC(C3)C4)nc(N3Cc4c(cccc4C(F)(F)F)C3=O)c2)COC1 [Compound 493, 2-(6-(bicyclo[2.1.1]hexan-1-ylamino)-4-(3-((4-methyl-4H-1,2,4-triazol-3-yl)methyl)oxetan-3-yl)pyridin-2-yl)-4-(trifluoromethyl)isoindolin-1-one]
8 |  |  |  |  |  | 13 | 12 | (0.94x) |  |  | Cn1cnnc1[C@H](F)C1(c2cccc(N3Cc4c(cc(CNC5(C)CCC5)cc4C(F)(F)F)C3=O)c2)COC1 [Compound 494, (R)-2-(3-(3-(fluoro(4-methyl-4H-1,2,4-triazol-3-yl)methyl)oxetan-3-yl)phenyl)-6-(((1-methylcyclobutyl)amino)methyl)-4-(trifluoromethyl)isoindolin-1-one]
